Reference: patent US20230407243A1, “GENETIC PLATFORM TO INVESTIGATE THE FUNCTIONS OF BACTERIAL DRUG EFFLUX PUMPS” (priority 2022, published 2023)

What was measured:
Format in all cases: cell-based, Escherichia coli
E. coli EKO-35 = experiment: microbe, parasite or virus in culture; conditions: for Fold change of MICs: EKO-35 compared to EKO-35 (reference); for Minimum inhibitory concentration (MIC), EKO-35: Table 10, without pore; for Minimum inhibitory concentration (MIC), EKO-35 / Minimum Inhibitory Concentration, EKO-35: technical duplicate; for Minimum Inhibitory Concentration, EKO-35: Table 13A, non-porinated
Description: (§1) Single colonies were used to inoculate 3 mL of LB followed by incubation at 37° C. for 18 h with aeration at 220 rpm. The bacterial cells were harvested by centrifugation and resuspended in phosphate buffered saline (PBS) ([pH 7.4], 137 mM NaCl (Bioshop), 2.7 mM KCl (Bioshop), 10 mM Na2PO4 (Bioshop) and 1.8 mM K2PO4) to an OD600 nm˜1.0, followed by 1/2000 dilution into MHB II.
(§2) To a 384-well microtiter plate (Corning, untreated polystyrene), 500 nL of compound was dispensed, in duplicate, and serially titrated 2-fold using an Echo 550 acoustic liquid dispenser (Labcyte Inc.). […] As a solvent control, 500 nL of DMSO was applied to wells that contained no compound. Using a multichannel pipette, 50 μL of the prepared bacterial inoculum was applied to each well. To enable background correction post-incubation, the OD600 nm was measured (Biotek Synergy Neo2 microplate reader) prior to incubation. The plates were incubated at 37° C. with aeration at 900 rpm for 18 h. The plates were equilibrated to room temperature and the OD600 nm measured using a BioTek Synergy Neo2 microplate reader. Data was analyzed in both Prism (GraphPad, Version 9.2.0) and Microsoft Excel (Version 16.53). Raw data were input into Microsoft Excel and the pre-incubation OD600 nm measurements were subtracted from the post-incubation OD600 nm measurements. These corrected measurements were input into Prism 9 as a grouped analysis. […] All other MIC values were adjusted accordingly and visualized using the single-color scale grouped heat map function. Identification of compound chemical properties was achieved using DataWarrior (Version 5.5.0). Using PubChem, the SMILES chemical notation for each compound was obtained and compiled in Microsoft Excel. The resulting spreadsheet was input into DataWarrior and properties were calculated from the compound chemical structures.

E. coli ΔtolC = experiment: microbe, parasite or virus in culture; conditions: technical duplicate; for Minimum inhibitory concentration (MIC), ΔtolC: Table 10, without pore; for Minimum Inhibitory Concentration, ΔtolC: Table 13A, non-porinated
Description: as §1, §2

[1] = system: wild-type E. coli K-12 str. BW25113; experiment: microbe, parasite or virus in culture; conditions: technical duplicate; for Minimum inhibitory concentration (MIC), K-12: Table 10, without pore; for Minimum Inhibitory Concentration, K-12: Table 13A, non-porinated
Description: as §1, §2

EKO-35 araC::acrBD408A = experiment: MIC susceptibility profiling, efflux platform; conditions: for Fold change of MICs: EKO-35 araC::acrBD408A compared to EKO-35; for Minimum Inhibitory Concentration, EKO-35 araC::acrBD408A: Table 13B, non-porinated, technical duplicate
Description: as §1, §2

EKO-35 araC::acrB = experiment: MIC susceptibility profiling, efflux platform; conditions: for Fold change of MICs: EKO-35 araC::acrB compared to EKO-35; for Minimum Inhibitory Concentration, EKO-35 araC::acrB: Table 13A, non-porinated, technical duplicate
Description: as §1, §2

EKO-35 araC::acrD = experiment: MIC susceptibility profiling, efflux platform; conditions: for Fold change of MICs: EKO-35 araC::acrD compared to EKO-35; for Minimum Inhibitory Concentration, EKO-35 araC::acrD: Table 13A, non-porinated, technical duplicate
Description: as §1, §2

EKO-35 araC::acrEF = experiment: MIC susceptibility profiling, efflux platform; conditions: for Fold change of MICs: EKO-35 araC::acrEF compared to EKO-35; for Minimum Inhibitory Concentration, EKO-35 araC::acrEF: Table 13A, non-porinated, technical duplicate
Description: as §1, §2

EKO-35 araC::emrAB = experiment: MIC susceptibility profiling, efflux platform; conditions: for Fold change of MICs: EKO-35 araC::emrAB compared to EKO-35; for Minimum Inhibitory Concentration, EKO-35 araC::emrAB: Table 13B, non-porinated, technical duplicate
Description: as §1, §2

EKO-35 araC::emrKY = experiment: MIC susceptibility profiling, efflux platform; conditions: for Fold change of MICs: EKO-35 araC::emrKY compared to EKO-35; for Minimum Inhibitory Concentration, EKO-35 araC::emrKY: Table 13B, non-porinated, technical duplicate
Description: as §1, §2

EKO-35 araC::macAB = experiment: MIC susceptibility profiling, efflux platform; conditions: for Fold change of MICs: EKO-35 araC::macAB compared to EKO-35; for Minimum Inhibitory Concentration, EKO-35 araC::macAB: Table 13B, non-porinated, technical duplicate
Description: as §1, §2

EKO-35 araC::mdtBC = experiment: MIC susceptibility profiling, efflux platform; conditions: for Fold change of MICs: EKO-35 araC::mdtBC compared to EKO-35; for Minimum Inhibitory Concentration, EKO-35 araC::mdtBC: Table 13B, non-porinated, technical duplicate
Description: as §1, §2

EKO-35 araC::mdtEF = experiment: MIC susceptibility profiling, efflux platform; conditions: for Fold change of MICs: EKO-35 araC::mdtEF compared to EKO-35; for Minimum Inhibitory Concentration, EKO-35 araC::mdtEF: Table 13A, non-porinated, technical duplicate
Description: as §1, §2

[2] = system: EKO-35 araC::mexCD (MexCD from P. aeruginosa); experiment: MIC susceptibility profiling, efflux platform; conditions: for Fold change of MICs: EKO-35 araC::mexCD compared to EKO-35; for Minimum Inhibitory Concentration, EKO-35 araC::mexCD: Table 13B, non-porinated, technical duplicate
Description: as §1, §2

wild-type (WT) K-12-Pore = experiment: microbe, parasite or virus in culture; conditions: technical duplicate; for Minimum inhibitory concentration (MIC), Pore K-12: Table 10, with pore; for Minimum inhibitory concentration, K-12 (WT)-Pore: Table 14A, porinated
Description: (§3) For genomic integration of the pore, the fhuA ΔC/Δ4L gene and the adjacent gentamicin resistance cassette were amplified using a high-fidelity polymerase and the fhuA_40_Up/gImS_3680_Low primers (Table 4). Integration of the pore gene was performed as described above. The pore gene was introduced into the intergenic region between the glmS and pstS genes, with gene expression under the control of a constitutive promoter (Kearse, M. et al., 2012). Genomic integrations were verified using PCR (Primers: pstS_520_Up/glmS_3680_Low, Table 4). Successful integrations were transformed with pCP20 to remove the gentamicin resistance cassette as previously described. Activity of the pore was confirmed through susceptibility testing with the large antibiotic vancomycin prior to phenotypic profiling and further susceptibility testing.
as §1, §2

ΔtolC-Pore = experiment: microbe, parasite or virus in culture; conditions: technical duplicate; for Minimum inhibitory concentration (MIC), Pore ΔtolC: Table 10, with pore; for Minimum inhibitory concentration, ΔtolC-Pore: Table 14A, porinated
Description: as §3, §1, §2

EKO-35-Pore = experiment: MIC susceptibility profiling, porinated strain; conditions: for Fold changes of MICs: EKO-35-Pore compared to EKO-35-Pore (reference); for Minimum inhibitory concentration (MIC), Pore EKO-35: Table 10, with pore; for Minimum inhibitory concentration (MIC), Pore EKO-35 / Minimum inhibitory concentration, EKO-35-Pore: technical duplicate; for Minimum inhibitory concentration, EKO-35-Pore: Table 14A, porinated
Description: as §3, §1, §2

EKO-35 araC::acrB Pore = experiment: MIC susceptibility profiling, porinated efflux platform; conditions: for Fold changes of MICs: EKO-35 araC::acr-B Pore compared to EKO-35-Pore; for Minimum inhibitory concentration, EKO-35 araC::acrB Pore: Table 14A, porinated, technical duplicate
Description: as §3, §1, §2

EKO-35 araC::mdtBC Pore = experiment: as above; conditions: for Fold changes of MICs: EKO-35 araC::mdtBC Pore compared to EKO-35-Pore; for Minimum inhibitory concentration: EKO-35 araC::mdtBC Pore, technical duplicate
Description: as §3, §1, §2

EKO-35 araC::mdtEF Pore = experiment: as above; conditions: for Fold changes of MICs: EKO-35 araC::mdtEF Pore compared to EKO-35-Pore; for Minimum inhibitory concentration, EKO-35 araC::mdtEF Pore: Table 14A, porinated, technical duplicate
Description: as §3, §1, §2

C=C1CCO[C@]2([C@@H](O)[C@@](C)(O)CO)NC(=O)[C@@]1(O)NC2=O [Bicyclomycin]
200 µg/mL: Minimum inhibitory concentration (MIC), EKO-35 (E. coli EKO-35) | Minimum Inhibitory Concentration, EKO-35 (E. coli EKO-35) | Minimum inhibitory concentration (MIC), ΔtolC (E. coli ΔtolC) | Minimum Inhibitory Concentration, ΔtolC (E. coli ΔtolC) | Minimum inhibitory concentration (MIC), K-12 [1] | Minimum Inhibitory Concentration, K-12 [1] | Minimum Inhibitory Concentration, EKO-35 araC::acrBD408A (EKO-35 araC::acrBD408A) | Minimum Inhibitory Concentration, EKO-35 araC::acrB (EKO-35 araC::acrB) | Minimum Inhibitory Concentration, EKO-35 araC::acrD (EKO-35 araC::acrD) | Minimum Inhibitory Concentration, EKO-35 araC::acrEF (EKO-35 araC::acrEF) | Minimum Inhibitory Concentration, EKO-35 araC::emrAB (EKO-35 araC::emrAB) | Minimum Inhibitory Concentration, EKO-35 araC::emrKY (EKO-35 araC::emrKY) | Minimum Inhibitory Concentration, EKO-35 araC::macAB (EKO-35 araC::macAB) | Minimum Inhibitory Concentration, EKO-35 araC::mdtBC (EKO-35 araC::mdtBC) | Minimum Inhibitory Concentration, EKO-35 araC::mdtEF (EKO-35 araC::mdtEF) | Minimum Inhibitory Concentration, EKO-35 araC::mexCD [2] | Minimum inhibitory concentration (MIC), Pore K-12 (wild-type (WT) K-12-Pore) | Minimum inhibitory concentration, K-12 (WT)-Pore (wild-type (WT) K-12-Pore) | Minimum inhibitory concentration (MIC), Pore ΔtolC (ΔtolC-Pore) | Minimum inhibitory concentration, ΔtolC-Pore (ΔtolC-Pore) | Minimum inhibitory concentration (MIC), Pore EKO-35 (EKO-35-Pore) | Minimum inhibitory concentration, EKO-35-Pore (EKO-35-Pore) | Minimum inhibitory concentration, EKO-35 araC::acrB Pore (EKO-35 araC::acrB Pore) | Minimum inhibitory concentration (EKO-35 araC::mdtBC Pore) | Minimum inhibitory concentration, EKO-35 araC::mdtEF Pore (EKO-35 araC::mdtEF Pore)
1 fold: Fold change of MICs (E. coli EKO-35) | Fold change of MICs (EKO-35 araC::acrBD408A) | Fold change of MICs (EKO-35 araC::acrB) | Fold change of MICs (EKO-35 araC::acrD) | Fold change of MICs (EKO-35 araC::acrEF) | Fold change of MICs (EKO-35 araC::emrAB) | Fold change of MICs (EKO-35 araC::emrKY) | Fold change of MICs (EKO-35 araC::macAB) | Fold change of MICs (EKO-35 araC::mdtBC) | Fold change of MICs (EKO-35 araC::mdtEF) | Fold change of MICs [2] | Fold changes of MICs (EKO-35-Pore) | Fold changes of MICs (EKO-35 araC::acrB Pore) | Fold changes of MICs (EKO-35 araC::mdtBC Pore) | Fold changes of MICs (EKO-35 araC::mdtEF Pore)

N#CC(C#N)=NNc1cccc(Cl)c1 [CCCP]
0.391 µg/mL: Minimum inhibitory concentration (MIC), Pore ΔtolC (ΔtolC-Pore) | Minimum inhibitory concentration, ΔtolC-Pore (ΔtolC-Pore)
50 µg/mL: Minimum Inhibitory Concentration, EKO-35 araC::emrAB (EKO-35 araC::emrAB)
2 fold: Fold changes of MICs (EKO-35 araC::mdtBC Pore)
1 fold: Fold change of MICs (E. coli EKO-35) | Fold change of MICs (EKO-35 araC::acrBD408A) | Fold change of MICs (EKO-35 araC::acrB) | Fold change of MICs (EKO-35 araC::acrD) | Fold change of MICs (EKO-35 araC::acrEF) | Fold change of MICs (EKO-35 araC::emrKY) | Fold change of MICs (EKO-35 araC::macAB) | Fold change of MICs (EKO-35 araC::mdtBC) | Fold change of MICs (EKO-35 araC::mdtEF) | Fold change of MICs [2] | Fold changes of MICs (EKO-35-Pore) | Fold changes of MICs (EKO-35 araC::acrB Pore) | Fold changes of MICs (EKO-35 araC::mdtEF Pore)
4 fold: Fold change of MICs (EKO-35 araC::emrAB)
conferred resistance: efflux pump-mediated resistance vs EKO-35 (EKO-35 araC::emrAB; EmrAB)
0.781 µg/mL: Minimum inhibitory concentration (MIC), ΔtolC (E. coli ΔtolC) | Minimum Inhibitory Concentration, ΔtolC (E. coli ΔtolC)
6.25 µg/mL: Minimum Inhibitory Concentration, EKO-35 araC::acrD (EKO-35 araC::acrD) | Minimum inhibitory concentration (MIC), Pore EKO-35 (EKO-35-Pore) | Minimum inhibitory concentration, EKO-35-Pore (EKO-35-Pore) | Minimum inhibitory concentration, EKO-35 araC::acrB Pore (EKO-35 araC::acrB Pore) | Minimum inhibitory concentration, EKO-35 araC::mdtEF Pore (EKO-35 araC::mdtEF Pore)
25 µg/mL: Minimum inhibitory concentration (MIC), K-12 [1] | Minimum Inhibitory Concentration, K-12 [1]
12.5 µg/mL: Minimum inhibitory concentration (MIC), EKO-35 (E. coli EKO-35) | Minimum Inhibitory Concentration, EKO-35 (E. coli EKO-35) | Minimum Inhibitory Concentration, EKO-35 araC::acrBD408A (EKO-35 araC::acrBD408A) | Minimum Inhibitory Concentration, EKO-35 araC::acrB (EKO-35 araC::acrB) | Minimum Inhibitory Concentration, EKO-35 araC::acrEF (EKO-35 araC::acrEF) | Minimum Inhibitory Concentration, EKO-35 araC::emrKY (EKO-35 araC::emrKY) | Minimum Inhibitory Concentration, EKO-35 araC::macAB (EKO-35 araC::macAB) | Minimum Inhibitory Concentration, EKO-35 araC::mdtBC (EKO-35 araC::mdtBC) | Minimum Inhibitory Concentration, EKO-35 araC::mdtEF (EKO-35 araC::mdtEF) | Minimum Inhibitory Concentration, EKO-35 araC::mexCD [2] | Minimum inhibitory concentration (MIC), Pore K-12 (wild-type (WT) K-12-Pore) | Minimum inhibitory concentration, K-12 (WT)-Pore (wild-type (WT) K-12-Pore) | Minimum inhibitory concentration (EKO-35 araC::mdtBC Pore)
